Data as given in patent publication US20070117770A1, “Human ribosomal DNA (rDNA) and ribosomal RNA (rRNA) nucleic acids and uses thereof” (Cylene Pharmaceuticals, Inc., priority 2005, published 2007).

Key:
Assay in all cases: Protein kinase inhibition assay
Assay type in all cases: biochemical
Blk(m) = Blk(m) (Mus musculus, UniProt P16277); settings: read-out: percent residual activity of Blk(m)
Method: (§1) Certain compounds were tested for activity in protein kinase inhibition assays. All substrates were dissolved and diluted to working stocks in de-ionized water, apart from histone H1 (10× working stock in 20 mM MOPS pH 7.0), PDKtide (10× working stock in 50 mM Tris pH 7.0) ATF2 (which is typically stored at a 20× working stock in 50 mM Tris pH 7.5, 150 mM NaCl, 0.1 mM EGTA, 0.03% Brij-35, 50% glycerol, 1 mM benzamidine, 0.2 mM PMSF and 0.1% R-mercaptoethanol), KKLNRTLSFAEPG (SEQ ID NO:203) and RRRLSFAEPG (SEQ ID NO:204) (50 mM HEPES pH 7.4) and GGEEEEYFELVKKKK (SEQ ID NO:205) (20 mM MOPS pH 7.0). All kinases were pre-diluted to a 10× working concentration prior to addition into the assay. The composition of the dilution buffer for each kinase is detailed below.
(§2) In a final reaction volume of 25 μl, Blk (m) (5-10 mU) is incubated with 50 mM Tris pH 7.5, 0.1 mM EGTA, 0.1 mM Na3VO4, 0.1% R-mercaptoethanol, 0.1 mg/ml poly(Glu, Tyr) 4:1, 10 mM MgAcetate and [gamma-33P-ATP] (specific activity approx. 500 cpm/pmol, concentration as required). The reaction is initiated by the addition of the MgATP mix. After incubation for 40 minutes at room temperature, the reaction is stopped by the addition of 5 μl of a 3% phosphoric acid solution. […]

CK1δ(h) = CK1δ(h) (Homo sapiens, UniProt P48730); settings: read-out: percent residual activity of CK1δ(h)
Chain of CK1δ(h) (P48730 whole entry): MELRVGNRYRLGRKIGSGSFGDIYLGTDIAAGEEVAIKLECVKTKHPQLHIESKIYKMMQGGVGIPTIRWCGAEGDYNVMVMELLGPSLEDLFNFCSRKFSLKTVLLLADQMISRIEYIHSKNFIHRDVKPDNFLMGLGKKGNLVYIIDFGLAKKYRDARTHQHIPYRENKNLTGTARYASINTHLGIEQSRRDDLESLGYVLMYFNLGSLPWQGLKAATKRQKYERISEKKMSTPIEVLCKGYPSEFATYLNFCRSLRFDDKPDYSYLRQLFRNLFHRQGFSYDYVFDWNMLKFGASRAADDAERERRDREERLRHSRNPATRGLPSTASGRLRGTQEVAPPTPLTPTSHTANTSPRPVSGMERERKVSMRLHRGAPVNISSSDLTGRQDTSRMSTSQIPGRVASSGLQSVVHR
Method: as §1
(§3) In a final reaction volume of 25 μl, CK1δ (h) (5-10 mU) is incubated with 8 mM MOPS pH 7.0, 0.2 mM EDTA, 200 μM KRRRALS(p)VASLPGL (SEQ ID NO:214), 10 mM MgAcetate and [gamma-33P-ATP] (specific activity approx. 500 cpm/pmol, concentration as required). The reaction is initiated by the addition of the MgATP mix. After incubation for 40 minutes at room temperature, the reaction is stopped by the addition of 5 μl of a 3% phosphoric acid solution. 10 μl of the reaction is then spotted onto a P30 filtermat and washed three times for 5 minutes in 75 mM phosphoric acid and once in methanol prior to drying and scintillation counting.

MKK7β(h) = molecular target: T1, MKK7β(h) (Homo sapiens, UniProt O14733); settings: for remaining activity at 2.5 µM: read-out: percent residual activity of MKK7β(h)
T1 sequence (O14733 1-419): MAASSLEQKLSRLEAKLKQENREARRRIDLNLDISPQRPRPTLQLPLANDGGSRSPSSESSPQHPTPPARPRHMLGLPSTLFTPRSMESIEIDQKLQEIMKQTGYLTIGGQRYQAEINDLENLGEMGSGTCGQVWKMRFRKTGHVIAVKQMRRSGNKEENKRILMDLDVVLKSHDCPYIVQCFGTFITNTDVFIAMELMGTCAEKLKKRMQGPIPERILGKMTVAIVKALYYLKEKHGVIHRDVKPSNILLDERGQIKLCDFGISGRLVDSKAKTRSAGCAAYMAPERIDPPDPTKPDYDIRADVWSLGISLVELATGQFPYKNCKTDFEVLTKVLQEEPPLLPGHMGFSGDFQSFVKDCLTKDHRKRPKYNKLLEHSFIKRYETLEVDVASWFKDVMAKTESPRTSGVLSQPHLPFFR
Method: as §1
The reaction is initiated by the addition of the MgATP. After incubation for 40 minutes at room temperature, 5 μl of this incubation mix is used to initiate a JNK1α1 (h) assay, which is exactly as described on page 11 of this book except that ATF2 is replaced with 250 μM peptide.

ASK1(h) = ASK1(h) (Homo sapiens, UniProt Q99683); settings: read-out: percent residual activity of ASK1(h)
Chain of ASK1(h) (Q99683 whole entry): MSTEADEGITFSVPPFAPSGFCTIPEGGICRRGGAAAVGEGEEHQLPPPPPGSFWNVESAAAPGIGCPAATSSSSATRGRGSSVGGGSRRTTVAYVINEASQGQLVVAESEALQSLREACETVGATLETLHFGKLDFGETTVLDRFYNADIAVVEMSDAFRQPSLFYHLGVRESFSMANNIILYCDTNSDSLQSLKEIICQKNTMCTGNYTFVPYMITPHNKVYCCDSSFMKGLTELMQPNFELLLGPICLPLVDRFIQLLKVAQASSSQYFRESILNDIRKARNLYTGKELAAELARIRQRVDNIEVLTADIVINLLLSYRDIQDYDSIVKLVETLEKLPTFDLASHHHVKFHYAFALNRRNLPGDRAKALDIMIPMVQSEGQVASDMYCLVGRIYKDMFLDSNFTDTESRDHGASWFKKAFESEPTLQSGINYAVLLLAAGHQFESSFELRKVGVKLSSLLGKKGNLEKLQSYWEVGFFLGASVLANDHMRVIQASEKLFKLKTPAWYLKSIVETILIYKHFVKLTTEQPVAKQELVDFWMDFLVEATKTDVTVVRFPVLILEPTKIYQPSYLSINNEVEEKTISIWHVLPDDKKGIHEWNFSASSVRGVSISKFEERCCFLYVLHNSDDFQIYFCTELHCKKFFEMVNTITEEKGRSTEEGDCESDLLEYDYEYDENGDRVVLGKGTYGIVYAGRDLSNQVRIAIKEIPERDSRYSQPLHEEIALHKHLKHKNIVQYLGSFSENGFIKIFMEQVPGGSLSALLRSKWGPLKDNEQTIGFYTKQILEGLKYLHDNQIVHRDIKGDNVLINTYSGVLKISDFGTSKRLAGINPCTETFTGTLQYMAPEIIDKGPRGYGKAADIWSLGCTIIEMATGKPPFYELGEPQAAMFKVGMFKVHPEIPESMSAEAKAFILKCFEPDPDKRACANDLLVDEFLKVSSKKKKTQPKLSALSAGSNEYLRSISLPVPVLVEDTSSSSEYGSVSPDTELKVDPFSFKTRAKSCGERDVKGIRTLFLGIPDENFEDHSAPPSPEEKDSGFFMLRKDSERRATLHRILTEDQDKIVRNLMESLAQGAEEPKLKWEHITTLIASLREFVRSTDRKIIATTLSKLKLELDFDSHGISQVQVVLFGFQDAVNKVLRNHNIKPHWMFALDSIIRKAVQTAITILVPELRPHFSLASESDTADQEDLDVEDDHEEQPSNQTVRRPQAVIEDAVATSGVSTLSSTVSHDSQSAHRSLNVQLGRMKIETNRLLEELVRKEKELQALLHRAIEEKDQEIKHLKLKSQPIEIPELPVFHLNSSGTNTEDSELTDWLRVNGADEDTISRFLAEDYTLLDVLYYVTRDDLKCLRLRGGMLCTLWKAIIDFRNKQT
Method: as §1
as §3, with “ASK1” for “CK1δ”, “0.33 mg/ml myelin basic protein,” for “200 μM KRRRALS(p)VASLPGL (SEQ ID NO:214),”

Lyn(m) = Lyn(m) (Mus musculus, UniProt P25911); settings: read-out: percent residual activity of Lyn(m)
Chain of Lyn(m) (P25911 whole entry): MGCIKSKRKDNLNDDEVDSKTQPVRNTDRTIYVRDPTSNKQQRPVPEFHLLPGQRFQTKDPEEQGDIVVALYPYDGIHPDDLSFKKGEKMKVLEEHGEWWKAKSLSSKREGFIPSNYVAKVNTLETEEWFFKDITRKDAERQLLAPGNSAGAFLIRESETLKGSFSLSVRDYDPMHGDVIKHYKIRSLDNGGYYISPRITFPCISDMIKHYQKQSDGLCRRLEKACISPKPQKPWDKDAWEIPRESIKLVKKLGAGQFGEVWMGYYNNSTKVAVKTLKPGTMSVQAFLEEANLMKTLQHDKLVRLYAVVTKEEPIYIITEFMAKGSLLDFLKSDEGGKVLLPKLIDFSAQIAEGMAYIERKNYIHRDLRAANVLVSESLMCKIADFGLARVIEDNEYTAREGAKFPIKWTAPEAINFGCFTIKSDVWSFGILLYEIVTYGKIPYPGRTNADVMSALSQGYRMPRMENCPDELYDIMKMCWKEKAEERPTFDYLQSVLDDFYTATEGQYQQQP
Method: as §1
as §2, with “Lyn” for “Blk”

EphB3(h) = EphB3(h) (Homo sapiens, UniProt P54753); settings: read-out: percent residual activity of EphB3(h)
Chain of EphB3(h) (P54753 34-998): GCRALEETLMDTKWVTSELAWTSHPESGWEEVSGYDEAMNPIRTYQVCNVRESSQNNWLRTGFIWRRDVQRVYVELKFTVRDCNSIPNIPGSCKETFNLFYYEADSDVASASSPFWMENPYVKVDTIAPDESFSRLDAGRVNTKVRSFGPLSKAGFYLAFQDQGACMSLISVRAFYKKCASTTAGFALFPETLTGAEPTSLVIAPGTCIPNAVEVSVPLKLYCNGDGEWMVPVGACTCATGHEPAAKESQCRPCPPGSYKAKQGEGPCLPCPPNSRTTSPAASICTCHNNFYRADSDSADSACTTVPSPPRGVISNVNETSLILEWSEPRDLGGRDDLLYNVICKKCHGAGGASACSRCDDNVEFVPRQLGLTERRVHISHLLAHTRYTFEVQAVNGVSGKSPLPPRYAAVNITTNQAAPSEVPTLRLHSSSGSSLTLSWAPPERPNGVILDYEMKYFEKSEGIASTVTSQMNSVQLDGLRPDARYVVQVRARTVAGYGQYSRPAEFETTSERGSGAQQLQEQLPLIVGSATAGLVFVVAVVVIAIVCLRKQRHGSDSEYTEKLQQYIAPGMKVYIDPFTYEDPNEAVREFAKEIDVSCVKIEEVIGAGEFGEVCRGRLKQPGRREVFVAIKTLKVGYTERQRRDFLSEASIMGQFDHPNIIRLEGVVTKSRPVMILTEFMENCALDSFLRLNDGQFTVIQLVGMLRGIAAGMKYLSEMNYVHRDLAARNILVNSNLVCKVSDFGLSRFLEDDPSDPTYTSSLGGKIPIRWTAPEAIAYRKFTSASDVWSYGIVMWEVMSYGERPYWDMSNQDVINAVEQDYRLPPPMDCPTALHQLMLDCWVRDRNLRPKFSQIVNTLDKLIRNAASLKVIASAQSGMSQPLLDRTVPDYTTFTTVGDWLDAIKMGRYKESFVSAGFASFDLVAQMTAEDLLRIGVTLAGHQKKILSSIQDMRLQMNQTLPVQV
Method: as §1
as §3, with “EphB3” for “CK1δ”, “10 mM MnCl2, 0.1 mg/ml poly (Glu, Tyr) 4:1,” for “200 μM KRRRALS(p)VASLPGL (SEQ ID NO:214),”, “Filtermat A” for “P30 filtermat”

Chain of Blk(m) (P16277 whole entry): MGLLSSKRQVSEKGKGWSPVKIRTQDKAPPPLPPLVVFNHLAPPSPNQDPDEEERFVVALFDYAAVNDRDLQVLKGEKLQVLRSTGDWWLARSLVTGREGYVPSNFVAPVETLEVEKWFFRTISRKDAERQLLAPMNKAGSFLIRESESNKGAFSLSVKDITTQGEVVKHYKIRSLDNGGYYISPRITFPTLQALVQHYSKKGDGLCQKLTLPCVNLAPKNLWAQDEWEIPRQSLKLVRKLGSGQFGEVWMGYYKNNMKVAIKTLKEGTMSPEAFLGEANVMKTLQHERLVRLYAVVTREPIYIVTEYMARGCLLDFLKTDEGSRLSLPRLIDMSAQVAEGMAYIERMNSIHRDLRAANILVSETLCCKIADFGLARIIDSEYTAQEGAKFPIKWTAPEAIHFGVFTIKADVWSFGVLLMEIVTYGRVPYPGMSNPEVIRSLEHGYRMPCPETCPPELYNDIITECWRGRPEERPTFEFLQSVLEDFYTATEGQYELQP

SMILES | remaining activity at 2.5 µM (Blk(m)) [%] | remaining activity at 2.5 µM (CK1δ(h)) [%] | remaining activity at 2.5 µM (MKK7β(h)) [%] | remaining activity at 2.5 µM (ASK1(h)) [%] | remaining activity at 2.5 µM (Lyn(m)) [%] | remaining activity at 2.5 µM (EphB3(h)) [%] | inhibition of MKK7B (MKK7β(h); 2.5 μM)
CN1CCCC1CCNC(=O)c1cn2c3c(c(N4CCC(c5cnccn5)C4)c(F)cc3c1=O)Oc1cc3ccccc3cc1-2 (stereo not shown) [Compound A-1] | 117 | 87 | 111 | 98 | 89 | 111 | 
CC(=O)N1CCN(c2ccc3c(=O)c(C(=O)NCCN4CCCC4)c4n(C)c5ccccc5n4c3n2)CC1 [Compound B-1] | 106 | 92 | 1 | 110 | 106 | 115 | inhibits MKK7B
